Assay results: patent US20080221060A1, “Therapeutic Compounds” (priority 2004, published 2008)
Values joined by “and” are separate entries in the source; they are usually repeats but may differ in a detail not shown here. Equal entries are not always repeated. Where two headings read alike, the source gives them in different places.

What was measured:
[1] = target: adenosine A2A receptor (UniProt P30543); assay: EC50 at the adenosine A2A receptor; format: biochemical
From the text: (§1) For the avoidance of doubt, the EC50 value of a compound is defined herein as the concentration of the compound that provokes a receptor response halfway between the baseline receptor response and the maximum receptor response (as determined, for example, using a dose-response curve).
(§2) The EC50 value should be determined under standard conditions (balanced salt solutions buffered to pH 7.4). For EC50 determinations using isolated membranes, cells and tissues this would be in buffered salt solution at pH 7.4 (e.g. cell culture medium), for example as in Daly et al, Pharmacol. (1993) 46, 91-100), or preferably as in Tilburg et al (J. Med. Chem. (2002) 45, 91-100). The EC50 could also be determined in vivo by measuring adenosine receptor mediated responses in a normal healthy animal, or even in a tissue perfused under normal conditions (i.e. oxygenated blood, or oxygenated isotonic media, also buffered at pH 7.4) in a normal healthy animal.

[2] = target: adenosine receptors (Rattus norvegicus, UniProt P30543); assay: EC50 at adenosine receptors measured at pH 7.4; format: biochemical; settings: measured at pH7.4
Sequence of adenosine receptors (P30543 whole entry): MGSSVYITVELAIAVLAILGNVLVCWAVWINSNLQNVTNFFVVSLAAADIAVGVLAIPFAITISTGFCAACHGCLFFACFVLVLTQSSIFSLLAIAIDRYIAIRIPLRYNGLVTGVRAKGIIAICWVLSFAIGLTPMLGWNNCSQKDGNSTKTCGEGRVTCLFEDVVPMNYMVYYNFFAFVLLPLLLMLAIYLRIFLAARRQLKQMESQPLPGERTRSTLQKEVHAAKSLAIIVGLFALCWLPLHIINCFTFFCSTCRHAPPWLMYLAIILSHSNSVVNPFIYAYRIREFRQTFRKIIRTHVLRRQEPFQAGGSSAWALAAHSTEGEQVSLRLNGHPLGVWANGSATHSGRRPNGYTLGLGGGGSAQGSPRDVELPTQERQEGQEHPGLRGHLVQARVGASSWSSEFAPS
From the text: as §1, §2

[3] = blood pressure and heart rate in rats (radiotelemetry); format: in vivo, rat
From the text: An implantable radiotelemetry device was placed in the abdominal cavity of 6 rats per group. The pressure catheter of the device was inserted in the abdominal aorta and two electrodes tunnelised under the skin in a lead II position (left side of abdominal cavity/right shoulder). Individual rats were placed in their own cage on a radioreceptor (DSI) for data acquisition. A: blood pressure; B: heart rate.

[4] = system: carrageenan (CGN) induced thermal hyperalgesia; assay: carrageenan induced thermal hyperalgesia (CITH); format: in vivo; settings: 0.624 mg/kg p.o.; indomethacin 3 mg/kg po as comparator
Protocol: A. […] Carrageenan (2%, 10 microlitres) was administered into the right hind paw. A heat source was placed close to the treated and untreated hind paws, and the difference in the paw withdrawal latencies is shown. Spongosine was administered at the same time as carrageenan.

[5] = system: chronic constriction injury model of neuropathic pain; assay: thermal hyperalgesia, chronic constriction injury of the rat sciatic nerve; format: in vivo; settings: rat CCI, 0.624 mg/kg p.o.
From the text: After approximately two weeks the rats developed thermal hyperalgesia in the operated leg as judged by the difference in paw withdrawal latencies of the right and left paws.

[6] = system: chronic constriction injury model of neuropathic pain; assay: static allodynia, chronic constriction injury of the rat sciatic nerve; format: in vivo; settings: rat CCI
From the text: The total dose administered is shown on the horizontal axis, and the paw withdrawal threshold (PWT) on the vertical axis.

[7] = system: human macrophage cell line U937; assay: LPS induced TNF alpha release in U937 cells; format: cell-based; settings: 100 ng/ml LPS, 3 hours
Protocol: Cells of human macrophage cell line U937 were grown in suspension to 500,000 cells/ml, plated out into 48 well plates, treated with 20 ng/ml PMA and incubated for 8 hours. Cells adhered to well bottoms and were washed and allowed to recover for 36 hours before use. […] After 3 hours the cell supernatants were assayed for TNF alpha using fluorescence labeled ELISA kits.

[8] = plasma concentrations after single oral dosing in human volunteers; format: in vivo
[9] = tachycardia by 12 lead ECGs in human volunteers; format: in vivo
Protocol: Tachycardia was determined using 12 lead ECGs.

[10] = system: carrageenan (CGN) induced inflammation; assay: carrageenan induced paw inflammation (plethysmometry); format: in vivo; settings: rat, 62.4 and 624 μg/kg i.p.; indomethacin 3 mg/kg po as comparator
Protocol: Carrageenan (2%, 10 microlitres) was administered into the right hind paw of a rat, and the paw volume assessed by plethysomometry. Spongosine was administered at the same time as carrageenan.

[11] = system: carageenan-induced inflammation; settings: rats, 20 mg/kg po; cited from earlier work
[12] = 20 mg/kg po; cited from earlier work
[13] = target: T1, rat adenosine A1 receptor (Rattus norvegicus, UniProt P25099); settings: cited from earlier work
T1 sequence (P25099 1-326): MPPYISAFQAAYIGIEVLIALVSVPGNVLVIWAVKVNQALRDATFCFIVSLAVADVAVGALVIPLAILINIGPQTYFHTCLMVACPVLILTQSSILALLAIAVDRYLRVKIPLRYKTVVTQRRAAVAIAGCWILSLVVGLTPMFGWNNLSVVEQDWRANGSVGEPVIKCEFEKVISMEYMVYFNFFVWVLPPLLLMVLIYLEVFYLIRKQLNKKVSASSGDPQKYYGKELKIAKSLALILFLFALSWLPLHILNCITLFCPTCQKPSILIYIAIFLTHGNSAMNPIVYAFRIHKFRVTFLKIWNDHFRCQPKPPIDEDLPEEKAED

[14] = target: rat A2A receptor (Rattus norvegicus, UniProt P30543); settings: read-out: EC50 for stimulation of the rat A2A receptor; cited from earlier work
Sequence of rat A2A receptor (P30543 whole entry): as the sequence (P30543 whole entry) above

[15] = target: T2, adenosine A1 receptor (Cavia porcellus, UniProt P47745); settings: guinea pig; read-out: EC50, adenosine A1 receptor, isolated heart preparation; cited from earlier work
T2 construct: host or cells: guinea pig isolated heart
T2 sequence (P47745 1-326): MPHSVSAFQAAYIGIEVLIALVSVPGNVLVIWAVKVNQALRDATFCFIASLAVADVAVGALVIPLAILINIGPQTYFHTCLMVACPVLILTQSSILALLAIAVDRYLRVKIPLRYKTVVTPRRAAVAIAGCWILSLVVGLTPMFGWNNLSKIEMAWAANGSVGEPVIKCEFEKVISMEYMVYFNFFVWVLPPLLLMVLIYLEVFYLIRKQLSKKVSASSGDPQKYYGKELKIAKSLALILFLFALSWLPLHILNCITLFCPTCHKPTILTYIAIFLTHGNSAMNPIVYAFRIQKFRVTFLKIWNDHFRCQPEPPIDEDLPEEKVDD

[16] = target: T3, adenosine A2A receptor (Cavia porcellus, UniProt P46616); settings: guinea pig; read-out: EC50, adenosine A2A receptor, isolated heart preparation; cited from earlier work
T3 construct: host or cells: guinea pig isolated heart
T3 sequence (P46616 whole entry): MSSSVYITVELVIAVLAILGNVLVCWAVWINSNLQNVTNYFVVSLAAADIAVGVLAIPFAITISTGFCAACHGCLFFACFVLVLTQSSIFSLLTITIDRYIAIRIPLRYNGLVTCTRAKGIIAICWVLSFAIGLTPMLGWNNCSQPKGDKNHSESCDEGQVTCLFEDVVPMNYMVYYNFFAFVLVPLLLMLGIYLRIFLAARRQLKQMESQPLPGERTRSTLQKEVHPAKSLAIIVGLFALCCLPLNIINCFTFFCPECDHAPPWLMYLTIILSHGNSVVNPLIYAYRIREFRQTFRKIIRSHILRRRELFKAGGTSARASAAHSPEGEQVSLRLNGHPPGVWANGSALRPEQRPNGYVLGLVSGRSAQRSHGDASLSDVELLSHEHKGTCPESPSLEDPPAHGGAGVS

[17] = target: adenosine receptors (rat striatal membranes, [3H]-CGS21680) (Rattus norvegicus, UniProt P30543); assay: Ki from displacement of [3H]-CGS21680 in rat striatal membranes at pH 5.5 and pH 7.4; format: binding; design: from tissue; host or cells: rat striatum (membranes); settings: for Ki: 2 nM [3H]-CGS21680, 90 minutes at 22° C.
Sequence of adenosine receptors (rat striatal membranes, [3H]-CGS21680) (P30543 whole entry): as the sequence (P30543 whole entry) above

- EC50 [1]: ~1000 nM
- EC50 [2]: 3030 nM and 3000 nM
- Cmax ([8]; single oral dose 0.2 mg): 10 ± 5 nM
- Cmax ([8]; single oral dose 0.8 mg): 40 ± 20 nM
- Cmax ([8]; single oral dose 3.5 mg): 130 ± 40 nM
- Cmax ([8]; single oral dose 10.5 mg): 300 ± 40 nM
- Cmax ([8]; single oral dose 21 mg): 500 ± 100 nM
- Cmax ([8]; single oral dose 28 mg): 600 ± 100 nM
- Ki ([17]; pH 5.5, read-out: (Ki) nM (pH 5.5)): 1.5 nM
- Ki ([17]; pH 7.4, read-out: (Ki) nM (pH 7.4)): 1300 nM
- affinity for adenosine receptors at pH below pH 7.4 ([17]; pH below pH 7.4 compared with pH 7.4): increased affinity
Compound: COc1nc(N)c2ncn([C@@H]3O[C@H](CO)[C@@H](O)[C@H]3O)c2n1 [Compound 1, 2-methoxyadenosine]
- effect on blood pressure ([3]; 62.4 and 624 μg/kg i.p.): do not affect blood pressure
- effect on blood pressure ([3]; normal rats, 0.624 mg/kg p.o.): no significant effect
- effect on heart rate ([3]; normal rats, 0.624 mg/kg p.o.): no significant effect
- inhibition of carrageenan induced thermal hyperalgesia [4]: inhibits carrageenan (CGN) induced thermal hyperalgesia (CITH) with comparable efficacy to indomethacin
- inhibition of thermal hyperalgesia (paw withdrawal latencies) [5]: inhibits thermal hyperalgesia
- efficacy compared with carbamazepine ([5]; CBZ 100 mg/kg s.c.): as, or more, effective than carbamazepine
- inhibition of static allodynia (paw withdrawal threshold) ([6]; […] p.o., presence and absence of naloxone (1 mg/kg s.c.)): inhibits static allodynia
- inhibition of static allodynia (paw withdrawal threshold) ([6]; p.o., dose response): inhibit static allodynia
- inhibition of LPS induced TNF alpha release [7]: inhibits LPS induced TNF release
- Tachycardia side effect ([9]; single oral dose 0.2 mg): No
- Tachycardia side effect ([9]; single oral dose 0.8 mg): No
- Tachycardia side effect ([9]; single oral dose 3.5 mg): No
- Tachycardia side effect ([9]; single oral dose 10.5 mg): No
- Tachycardia side effect ([9]; single oral dose 21 mg): No
- Tachycardia side effect ([9]; single oral dose 28 mg): Yes
- inhibition of carrageenan induced inflammation (paw volume) [10]: inhibits carrageenan (CGN) induced inflammation with comparable efficacy to indomethacin
- inhibition of carageenan-induced inflammation [11]: 25%
- reduction in heart rate [12]: 25%
- reduction in mean blood pressure [12]: 41%
- Kd [13]: 340 nM
- EC50 [14]: 3000 nM
- EC50 [15]: 10000 nM
- EC50 [16]: 700 nM
